Measured values as given in US8455487B2, “Methods of controlling insects” (Syngenta Participations AG, priority 2007, dated 2013).

Key:
pollen beetles [1] = experiment: B.3 field trial, control of pollen beetle in oilseed rape, extremely high pest pressure (vs lambda cyhalothrin and thiacloprid); type: in vivo, Meligethes; conditions: foliar
Experimental: A third field trial (randomized complete block) was carried out on oilseed rape, which had reached crop stage BBCH 55 (new growth with 30 to 60 cm height; flower buds, open flowers, some small seed pods formed) and which was under attack by actively foraging pollen beetles (adult beetles: 10 beetle/flower cluster). The active ingredient pymetrozine ((E)-4,5-dihydro-6-methyl-4-(3-pyridylmethyleneamino)-1,2,4-triazin-3(2H)-one; formulated as Plenum 50% WG) was tested at rates of 50, 100 and 150 g ai/ha and compared to the activity of lambda cyhalothrin (7.5 g ai/ha) and thiacloprid (72 g ai/ha). Foliar application of the compounds under test was effected using a conventional spray boom and a volume of 400 L/ha. The degree of pest control was assessed pre-spray, and compared to that observed 2 hours, 1, 3 and 5 days after application.

[2] = system: pyrethroid resistant Pollen Beetle; experiment: B.5 three field trials, control of pyrethroid resistant pollen beetle in oilseed rape; type: in vivo, Meligethes; conditions: foliar
Experimental: Three further field trials (randomized complete block, 25 plants per plot) were carried out on oilseed rape, which had reached crop stage BBCH 57-63 and which was under attack by actively foraging pollen beetles (adult beetles: average of 27 adult beetles/plot). The active ingredient pymetrozine ((E)-4,5-dihydro-6-methyl-4-(3-pyridylmethylene-amino)-1,2,4-triazin-3(2H)-one; formulated as Plenum 50% WG) was tested at rates of 75, 100 and 150 g ai/ha and compared to the activity of lambda cyhalothrin (7.5 g ai/ha) and thiacloprid (72 g ai/ha). Foliar application of the compounds under test was effected using a conventional spray boom and a volume of 300 L/ha. The degree of pest control was assessed pre-spray, and compared to that observed 1, 4 and 7 days after application.

[3] = system: pyrethroid resistant Pollen Beetle; experiment: B.4 field trial, control of pyrethroid resistant pollen beetle in oilseed rape; type: in vivo, Meligethes
Experimental: A further field trial (randomized complete block, 30 racemes per plot) was carried out on oilseed rape, which had reached crop stage BBCH 57-59 (individual flower buds—secondary inflorescence—visible but still closed) and which was under attack by actively foraging pollen beetles (adult beetles: average of 30 adult beetles/plot). The active ingredient pymetrozine ((E)-4,5-dihydro-6-methyl-4-(3-pyridylmethylene-amino)-1,2,4-triazin-3(2H)-one; formulated as Plenum 50% WG) was tested at rates of 50, 100 and 150 g ai/ha and compared to the activity of lambda cyhalothrin (7.5 g ai/ha) and thiacloprid (72 g ai/ha). Foliar application of the compounds under test was effected using a conventional spray boom and a volume of 500 L/ha. The degree of pest control was assessed pre-spray, and compared to that observed 1 and 3 days after application.

pollen beetles [4] = experiment: B.2 unreplicated field test, control of pollen beetle in winter oilseed rape (vs lambda-cyhalothrin); type: in vivo, Meligethes; conditions: for % Control 1DAA: foliar
Experimental: An unreplicated field test was carried out on Winter oilseed rape, (crop stage BBCH 55) and which was under attack by actively foraging pollen beetles (adult beetles: 2.32 beetle/flower cluster). The active ingredient pymetrozine ((E)-4,5-dihydro-6-methyl-4-(3-pyridylmethyleneamino)-1,2,4-triazin-3(2H)-one; formulated as Chess 50% WG) was tested at rates of 12.5, 50 and 200 g ai/ha and compared to the activity of lambda-cyhalothrin (formulated as Karate Zeon 10CS) at 5 g ai/ha. Foliar application of the compounds under test was effected using a conventional spray boom. The degree of pest infestation was assessed pre-spray (average of 2.3 adult pollen beetles per flower cluster in the check plot) and compared to that observed 1day after application.

pollen beetles [5] = experiment: B.1 field trial, control of pollen beetle in winter oilseed rape (vs Lavender oil and Quassan 30); type: in vivo, Meligethes; conditions: foliar
Experimental: A randomized complete block field trial was carried out on winter oilseed rape, which had reached crop stage BBCH 55 (flower buds, open flowers, some small seed pods formed) and which was under attack by actively foraging pollen beetles (adult beetles: 1 beetle/flower cluster). The active ingredient pymetrozine ((E)-4,5-dihydro-6-methyl-4-(3-pyridylmethyleneamino)-1,2,4-triazin-3(2H)-one; formulated as Plenum 50% WG) was tested at rates of 50 and 150 g ai/ha and compared to the activity of Lavender oil (at rates of 1000 g ai/ha and 2500 g ai/ha) and Quassia amara extract (Quassan 30; applied at rates of 30, 90 and 270 g ai/ha). Foliar application of the compounds under test was effected using a conventional spray boom and a volume of 500 L/ha. The degree of pest control was assessed pre-spray, and compared to that observed 1, 3 and 5 days after application.

[6] = system: insects from the Carabidae family; conditions: Sechser et al. 2002 J. Pest Science 75:72-77; cited from earlier work
[7] = system: insects from the Staphylinidae family; conditions: Sechser et al. 2002 J. Pest Science 75:72-77; cited from earlier work
[8] = system: insects from the Coccinellidae family; conditions: Sechser et al. 2002 J. Pest Science 75:72-77; cited from earlier work

Structure (SMILES): CC1=NNC(=O)N(N=Cc2cccnc2)C1 [Pymetrozine, 4,5-dihydro-6-methyl-4-(3-pyridylmethyleneamino)-1,2,4-triazin-3(2H)-one]
- % Control (pollen beetles [1]; 50 g ai/ha, 1 DAA): 19%
- % Control (pollen beetles [1]; 50 g ai/ha, 3 DAA): 44%
- % Control (pollen beetles [1]; 50 g ai/ha, 5DAA): 0%
- % Control (pollen beetles [1]; 50 g ai/ha, 2 hrs aa): 37.3%
- % Control (pollen beetles [1]; 100 g ai/ha, 1 DAA): 61%
- % Control (pollen beetles [1]; 100 g ai/ha, 3 DAA): 77%
- % Control (pollen beetles [1]; 100 g ai/ha, 5 DAA): 0%
- % Control (pollen beetles [1]; 100 g ai/ha, 2 hrs aa): 39.9%
- % Control (pollen beetles [1]; 150 g ai/ha, 1 DAA): 61%
- % Control (pollen beetles [1]; 150 g ai/ha, 3 DAA): 84%
- % Control (pollen beetles [1]; 150 g ai/ha, 5DAA): 0%
- % Control (pollen beetles [1]; 150 g ai/ha, 2 hrs aa): 42.5%
- Mean % Control ([2]; 75 g ai/ha, 1 DAA): 89.9%
- Mean % Control ([2]; 75 g ai/ha, 4 DAA): 72.4%
- Mean % Control ([2]; 75 g ai/ha, 7 DAA): 92.8%
- Mean % Control ([2]; 100 g ai/ha, 1 DAA): 87.2%
- Mean % Control ([2]; 100 g ai/ha, 4 DAA): 72.9%
- Mean % Control ([2]; 100 g ai/ha, 7 DAA): 92.8%
- Mean % Control ([2]; 150 g ai/ha, 1 DAA): 95.2%
- Mean % Control ([2]; 150 g ai/ha, 4 DAA): 77.4%
- Mean % Control ([2]; 150 g ai/ha, 7 DAA): 91.3%
- % Control ([3]; 3DAA, rates 50, 100 and 150 g ai/ha): > 90%
- % Control ([3]; 50 g ai/ha, foliar, 1 DAA): 60%
- % Control ([3]; 50 g ai/ha, foliar, 3 DAA): 96%
- % Control ([3]; 100 g ai/ha, foliar, 1 DAA): 62%
- % Control ([3]; 100 g ai/ha, foliar, 3 DAA): 97%
- % Control ([3]; 150 g ai/ha, foliar, 1 DAA): 78%
- % Control ([3]; 150 g ai/ha, foliar, 3 DAA): 96%
- % Control 1DAA (pollen beetles [4]; 12.5 g ai/ha, 1DAA): 90%
- % Control 1DAA (pollen beetles [4]; 50 g ai/ha, 1 DAA): 98%
- % Control 1DAA (pollen beetles [4]; 200 g ai/ha, 1DAA): 100%
- control of Meligethes (in words) (pollen beetles [4]; at all rates (12.5, 50, 200 g ai/ha), 1DAA): excellent control
- Percentage Control (pollen beetles [5]; 50 g ai/ha, 1 DAA): 90%
- Percentage Control (pollen beetles [5]; 50 g ai/ha, 3 DAA): 98%
- Percentage Control (pollen beetles [5]; 50 g ai/ha, 5DAA): 99%
- Percentage Control (pollen beetles [5]; 150 g ai/ha, 1 DAA): 86%
- Percentage Control (pollen beetles [5]; 150 g ai/ha, 3 DAA): 92%
- Percentage Control (pollen beetles [5]; 150 g ai/ha, 5DAA): 95%
- effect on insects (in words) [6]: no effect
- effect on insects (in words) [7]: no effect
- effect on insects (in words) [8]: no effect

Structure (SMILES): N#C/N=C1\SCCN1Cc1ccc(Cl)nc1 [Thiacloprid]
- % Control (pollen beetles [1]; 72 g ai/ha, 1 DAA): 67%
- % Control (pollen beetles [1]; 72 g ai/ha, 3 DAA): 92%
- % Control (pollen beetles [1]; 72 g ai/ha, 5 DAA): 0%
- % Control (pollen beetles [1]; 72 g ai/ha, 2 hrs aa): 39.9%
- Mean % Control ([2]; 72 g ai/ha, 1 DAA): 74.7%
- Mean % Control ([2]; 72 g ai/ha, 4 DAA): 92.5%
- Mean % Control ([2]; 72 g ai/ha, 7 DAA): 78.3%
- % Control ([3]; 72 g ai/ha, foliar, 1 DAA): 63%
- % Control ([3]; 72 g ai/ha, foliar, 3 DAA): 94%

Structure (SMILES): CC1(C)[C@H](C(=O)O[C@H](C#N)c2cccc(Oc3ccccc3)c2)[C@@H]1/C=C(\Cl)C(F)(F)F (racemic) [Lambda cyhalothrin]
- % Control (pollen beetles [1]; 7.5 g ai/ha, 1 DAA): 75%
- % Control (pollen beetles [1]; 7.5 g ai/ha, 3 DAA): 92%
- % Control (pollen beetles [1]; 7.5 g ai/ha, 5 DAA): 23%
- % Control (pollen beetles [1]; 7.5 g ai/ha, 2 hrs aa): 63.4%
- Mean % Control ([2]; 7.5 g ai/ha, 1 DAA): 33.0%
- Mean % Control ([2]; 7.5 g ai/ha, 4 DAA): 20.0%
- Mean % Control ([2]; 7.5 g ai/ha, 7 DAA): 18.1%
- % Control ([3]; 7.5 g ai/ha, foliar, 1 DAA): 73%
- % Control ([3]; 7.5 g ai/ha, foliar, 3 DAA): 60%
- level of control (in words) ([3]; recommended field rate (7.5 g ai/ha)): low level of control
- % Control 1DAA (pollen beetles [4]; 5 g ai/ha, 1DAA): 100%
